Earlier results, collected in patent publication US20050208134A1, “Biocompatible polymeric beads and use thereof” (priority 2004, published 2005).

Settings: humans, administered orally

Structure (SMILES): O=C(CC1NCCCC1O)Cn1cnc2cc(Br)c(Cl)cc2c1=O (stereo not shown) [halofuginone]
- maximum tolerated dose with no adverse effects observed: 1 mg/day
